Values quoted from earlier work, collected in patent US20180333352A1, “TOPICAL FORMULATIONS AND USES THEREOF” (SUN PHARMA GLOBAL FZE, priority 2015, published 2018).

Tests used:
[1] = test system: T-cell adhesion to ICAM-1 expressing cells; conditions: in vitro
IFNγ, TNFα, IL-2 = conditions: in vitro

Compound | Solubility in ethyl alcohol and methyl alcohol (ethyl alcohol, methyl alcohol) | Solubility in water (water) | T-cell adhesion to ICAM-1 expressing cells [1] | Secretion of key inflammatory cytokines (IFNγ, TNFα, IL-2) (IFNγ, TNFα, IL-2)
CCNC(=O)CCC/C=C\C[C@@H]1[C@@H](/C=C/[C@@H](O)CCc2ccccc2)[C@H](O)C[C@@H]1O [Bimatoprost, (Z)-7-[(1R,2R,3R,5 S)-3,5-Dihydroxy-2 [(1E,3S)-3-hydroxy-5-phenyl-1-pentenyl]cyclopentyl]-5-N-ethylheptenamide] | very soluble | only slightly soluble | – | –
CS(=O)(=O)c1cccc(C[C@H](NC(=O)c2c(Cl)cc3c(c2Cl)CCN(C(=O)c2ccc4ccoc4c2)C3)C(=O)O)c1 [lifitegrast] | – | – | inhibits | inhibits
